Active and inactive are the calls of the source. The calls are words filed in the database; no cut-off is given here.
Tests used:
[1] = target: T1, Peptidoglycan-N-acetylglucosamine deacetylase (Streptococcus pneumoniae (strain ATCC BAA-255 / R6)) (UniProt Q8DP63); assay: Inhibition of Streptococcus pneumoniae Pgda expressed in Escherichia coli BL21 (DE3) cells transformed with pET28bSpPgdA232-431 plasmid at 5 mM using acetoxymethyl-4-methylumbelliferone as substrate measured at 5 min intervals over 60 mins in presence of CoCl2 by fluorescence assay
T1 sequence (whole entry): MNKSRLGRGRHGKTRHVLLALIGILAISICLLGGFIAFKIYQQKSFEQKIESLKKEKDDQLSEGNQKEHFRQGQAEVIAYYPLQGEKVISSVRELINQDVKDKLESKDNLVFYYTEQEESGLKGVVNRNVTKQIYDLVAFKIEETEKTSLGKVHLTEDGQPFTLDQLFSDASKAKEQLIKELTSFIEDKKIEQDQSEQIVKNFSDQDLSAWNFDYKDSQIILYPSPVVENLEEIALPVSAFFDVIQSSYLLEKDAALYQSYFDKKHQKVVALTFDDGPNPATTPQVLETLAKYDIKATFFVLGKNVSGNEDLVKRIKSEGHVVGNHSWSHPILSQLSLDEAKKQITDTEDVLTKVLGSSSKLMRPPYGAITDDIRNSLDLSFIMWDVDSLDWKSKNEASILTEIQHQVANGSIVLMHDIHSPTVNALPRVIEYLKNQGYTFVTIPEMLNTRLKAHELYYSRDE

[2] = target: T2, Peptidoglycan-N-acetylglucosamine deacetylase (Streptococcus pneumoniae (strain ATCC BAA-255 / R6), UniProt Q8DP63); assay: (§1) Inhibition of Streptococcus pneumoniae Pgda expressed in Escherichia coli BL21 (DE3) cells transformed with pET28bSpPgdA232-431 plasmid using acetoxymethyl-4-methylumbelliferone as substrate measured at 5 min intervals over 60 mins in presence of CoCl2 by fluorescence assay
T2 sequence (Q8DP63 whole entry): T1 sequence (whole entry)

[3] = target: T3, Poly-beta-1,6-N-acetyl-D-glucosamine N-deacetylase (Escherichia coli (strain K12), UniProt P75906); assay: (§2) Inhibition of Escherichia coli PgaB expressed in Escherichia coli BL21 (DE3) cells transformed with pET28 plasmid coding for PgaB42-655 using acetoxymethyl-4-methylumbelliferone as substrate measured at 2 min intervals over 10 mins in presence of CoCl2 by fluorescence assay
T3 sequence (P75906 whole entry): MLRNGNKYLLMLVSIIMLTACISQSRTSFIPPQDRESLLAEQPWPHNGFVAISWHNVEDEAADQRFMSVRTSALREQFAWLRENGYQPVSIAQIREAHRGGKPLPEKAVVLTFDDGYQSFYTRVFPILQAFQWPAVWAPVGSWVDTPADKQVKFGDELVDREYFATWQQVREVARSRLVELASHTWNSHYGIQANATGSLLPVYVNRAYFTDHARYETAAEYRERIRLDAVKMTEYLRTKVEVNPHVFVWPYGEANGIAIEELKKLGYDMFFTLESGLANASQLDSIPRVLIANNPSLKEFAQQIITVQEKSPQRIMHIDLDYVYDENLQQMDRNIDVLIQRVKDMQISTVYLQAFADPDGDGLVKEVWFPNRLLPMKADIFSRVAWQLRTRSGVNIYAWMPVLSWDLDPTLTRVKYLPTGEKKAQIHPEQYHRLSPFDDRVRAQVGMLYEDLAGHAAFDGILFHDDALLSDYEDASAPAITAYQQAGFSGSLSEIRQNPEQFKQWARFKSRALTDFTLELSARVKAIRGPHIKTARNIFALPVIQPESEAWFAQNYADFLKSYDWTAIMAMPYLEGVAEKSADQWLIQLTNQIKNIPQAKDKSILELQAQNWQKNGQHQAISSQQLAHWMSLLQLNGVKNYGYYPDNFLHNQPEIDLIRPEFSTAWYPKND

[4] = target: T4, Poly-beta-1,6-N-acetyl-D-glucosamine N-deacetylase (Escherichia coli (strain K12)) (UniProt P75906); assay: Substrate activity at Escherichia coli PgaB at 1 mM in presence of CoCl2 or ZnCl2 by fluorescamine assay deacetylase assay
T4 sequence (whole entry): T3 sequence (P75906 whole entry)

[5] = target: T1, Peptidoglycan-N-acetylglucosamine deacetylase (Streptococcus pneumoniae (strain ATCC BAA-255 / R6)); assay: Substrate activity at Streptococcus pneumoniae Pgda at 1 mM in presence of CoCl2 or ZnCl2 by fluorescamine assay deacetylase assay
[6] = target: T2, Peptidoglycan-N-acetylglucosamine deacetylase; assay: Partial mixed inhibition of Streptococcus pneumoniae apo-Pgda using N,N',N\"-triacetyl chitotriose as substrate in presence of ZnCl2 by fluorescamine assay deacetylase assay based Dixon plot analysis
[7] = target: T2, Peptidoglycan-N-acetylglucosamine deacetylase; assay: as §1, with “plasmid using compound pre-incubated with 1Eq DTT and” for “plasmid”
[8] = target: T2, Peptidoglycan-N-acetylglucosamine deacetylase; assay: as §1, with “using compound pre-incubated with 1Eq DTT and using” for “using”, “ZnCl2” for “CoCl2”
[9] = target: T1, Peptidoglycan-N-acetylglucosamine deacetylase (Streptococcus pneumoniae (strain ATCC BAA-255 / R6)); assay: Inhibition of Streptococcus pneumoniae Pgda expressed in Escherichia coli BL21 (DE3) cells transformed with pET28bSpPgdA232-431 plasmid at 200 to 1200 uM using acetoxymethyl-4-methylumbelliferone as substrate measured at 5 min intervals over 60 mins in presence of 6 uM ZnCl2 by fluorescence assay
[10] = target: T1, Peptidoglycan-N-acetylglucosamine deacetylase (Streptococcus pneumoniae (strain ATCC BAA-255 / R6)); assay: Inhibition of Streptococcus pneumoniae Pgda expressed in Escherichia coli BL21 (DE3) cells transformed with pET28bSpPgdA232-431 plasmid at 200 to 1200 uM using acetoxymethyl-4-methylumbelliferone as substrate measured at 5 min intervals over 60 mins in presence of 200 uM ZnCl2 by fluorescence assay
[11] = target: T3, Poly-beta-1,6-N-acetyl-D-glucosamine N-deacetylase; assay: as §2, with “using compound pre-incubated with 1Eq DTT and using” for “using”
[12] = target: T3, Poly-beta-1,6-N-acetyl-D-glucosamine N-deacetylase; assay: as §2, with “using compound pre-incubated with 1Eq DTT and using” for “using”, “ZnCl2” for “CoCl2”
[13] = target: T1, Peptidoglycan-N-acetylglucosamine deacetylase (Streptococcus pneumoniae (strain ATCC BAA-255 / R6)); assay: Inhibition of Streptococcus pneumoniae Pgda expressed in Escherichia coli BL21 (DE3) cells transformed with pET28bSpPgdA232-431 plasmid at 200 to 1200 uM using acetoxymethyl-4-methylumbelliferone as substrate measured at 5 min intervals over 60 mins in presence of 3 uM ZnCl2 by fluorescence assay
[14] = target: T1, Peptidoglycan-N-acetylglucosamine deacetylase (Streptococcus pneumoniae (strain ATCC BAA-255 / R6)); assay: Substrate activity at Streptococcus pneumoniae Pgda at 5 mM in presence of CoCl2 or ZnCl2 by fluorescamine assay deacetylase assay
[15] = target: T4, Poly-beta-1,6-N-acetyl-D-glucosamine N-deacetylase (Escherichia coli (strain K12)); assay: Substrate activity at Escherichia coli PgaB at 5 mM in presence of CoCl2 or ZnCl2 by fluorescamine assay deacetylase assay
[16] = target: T1, Peptidoglycan-N-acetylglucosamine deacetylase (Streptococcus pneumoniae (strain ATCC BAA-255 / R6)); assay: Inhibition of Streptococcus pneumoniae Pgda expressed in Escherichia coli BL21 (DE3) cells transformed with pET28bSpPgdA232-431 plasmid at 10 mM using acetoxymethyl-4-methylumbelliferone as substrate measured at 5 min intervals over 60 mins in presence of CoCl2 by fluorescence assay
[17] = target: T4, Poly-beta-1,6-N-acetyl-D-glucosamine N-deacetylase (Escherichia coli (strain K12)); assay: Inhibition of Escherichia coli PgaB expressed in Escherichia coli BL21 (DE3) cells transformed with pET28 plasmid coding for PgaB42-655 at 10 mM using acetoxymethyl-4-methylumbelliferone as substrate measured at 2 min intervals over 10 mins in presence of CoCl2 by fluorescence assay

SMILES	IC50 [2]	IC50 [3]	Activity [14]	Activity [15]	other results
COP(=O)(O)C[C@H]1[C@H](OCc2ccccc2)O[C@H](COCc2ccccc2)[C@@H](O)[C@@H]1O	> 5 mM	> 5 mM	–	–	inhibition [1]: inactive
CC(=O)N[C@H]1[C@H](OCc2ccccc2)O[C@H](CO)[C@@H](O)[C@@H]1N=[N+]=[N-]	> 5 mM	> 5 mM	–	–	Activity [4]: inactive; Activity [5]: inactive
CC(=S)N[C@H]1[C@H](OCc2ccccc2)O[C@H](CO)[C@@H](O)[C@@H]1S	–	–	–	–	Activity [4]: inactive; Ki [6]: 0.0029 mM; IC50 [7]: > 1 mM; IC50 [8]: 0.011 mM; inhibition [9]: Active; inhibition [10]: Active; IC50 [11]: > 1 mM; Activity [5]: inactive; IC50 [12]: 0.14 mM; inhibition [13]: inactive
CC(=O)N[C@H]1[C@H](OCc2ccccc2)O[C@H](CO)[C@@H](O)[C@@H]1S	–	–	inactive	inactive	IC50 [7]: > 8 mM; IC50 [8]: 5 mM; IC50 [11]: > 8 mM; IC50 [12]: 1.1 mM
O[C@H](CS)[C@H](O)CS	–	–	–	–	inhibition [16]: inactive; inhibition [17]: inactive
COP(=O)(O)C[C@H]1[C@H](OCc2ccccc2)O[C@H](CO)[C@@H](OCc2ccccc2)[C@@H]1O	> 5 mM	> 5 mM	–	–	inhibition [1]: inactive
NS(=O)(=O)C[C@H]1[C@H](OCc2ccccc2)O[C@H](CO)[C@@H](OCc2ccccc2)[C@@H]1O	> 5 mM	> 5 mM	–	–	–
NS(=O)(=O)C[C@H]1[C@H](OCc2ccccc2)O[C@H](CO)[C@@H](O)[C@@H]1O	> 10 mM	> 10 mM	–	–	–
CC(=O)N[C@H]1[C@H](OCc2ccccc2)O[C@H](CO)[C@@H](O)[C@@H]1O	11 mM	> 20 mM	inactive	inactive	–
CC(=O)N[C@H]1[C@H](OCc2ccccc2)O[C@H](CO)[C@@H](O)[C@@H]1N	> 10 mM	> 10 mM	inactive	inactive	–
CS(=O)(=O)N[C@H]1[C@H](OCc2ccccc2)O[C@H](CO)[C@@H](O)[C@@H]1S	–	–	–	–	Activity [4]: inactive; IC50 [7]: > 1 mM; IC50 [8]: > 1 mM; IC50 [11]: > 1 mM; Activity [5]: inactive; IC50 [12]: > 1 mM
CC(=S)N[C@H]1[C@H](OCc2ccccc2)O[C@H](CO)[C@@H](O)[C@@H]1O	> 10 mM	> 10 mM	inactive	inactive	–
COP(=O)(O)C[C@H]1[C@H](OCc2ccccc2)O[C@H](CO)[C@@H](O)[C@@H]1O	4.9 mM	> 10 mM	–	–	–
